Experimental data taken from patent publication US20240360193A1, “POLYPEPTIDE DERIVATIVE WITH DUAL GLP-1R AND GIPR TARGETING AGONISTIC EFFECT, AND PREPARATION METHOD AND USE THEREOF” (NANJING ZHIHE MEDICINE TECHNOLOGY CO., LTD., priority 2021, published 2024).
Where two headings read alike, the source gives them in different places. Square brackets hold non-standard residues; d marks the D form. Peptide text beside a SMILES is read from it. * marks the point of attachment. X1 = O=C(O)CCCCCCCCCCCCCCCCCCC(=O)NC(CCC(=O)NCCOCCOCCNC(=O)COCCOCC(=O)*)C(=O)O; Aib = CC(C)(N)C(=O)O

Legend:
[1] = human, in vivo; cited from earlier work
in vivo = assay: in vivo; parameters: species or system SD rats; settings: rat, sc, 1.35 mg/kg; for MRT: male, SD
Method: The polypeptide derivative (1) and Tirzepatide were subcutaneously administered to male rats respectively in a single dose, blood samples of the male rats were then collected at different time points, and a concentration of the compound in plasma was determined by LC-MS/MS and related pharmacokinetic parameters were calculated, to investigate the pharmacokinetic characteristics of the compound in the rats.
16 male SD rats were randomly divided into two groups of eight rats each based on body weights. The rats were fasted for 12 h to 14 h, but water was allowed, one day before the administration. The rats were given food 4 h after the administration.
Sample collection: Before and after the administration, 0.1 mL of blood was sampled from the orbit of each rat under isoflurane anaesthesia, and then added in an EDTAK2 centrifuge tube in an ice bath to be centrifuged at 4° C. at 5000 rpm for 10 min. Then, plasma was collected.
Time points for blood collection of SC groups are 0, 5 min, 15 min, 30 min, 1 h, 2 h, 4 h, 6 h, 8 h, 24 h, 28 h, 32 h, and 48 h. All plasma samples were stored at −80° C. before analysis and testing.
The software Analyst 1.5.1 (Applied Biosystem) was used for data collection and system control. Automatic chromatographic peak integration was used for the sample. The sample concentration was regressed with a ratio of the sample peak area to the internal standard peak area as an index. Linear regression was used with a weighting factor of 1/X^2. Pharmacokinetic parameters were analyzed and processed with a non-compartmental model by using WinNonlin Professional v6.3 (Pharsight, USA). Cmax is a measured maximum plasma concentration. An area AUC(0→t) under a plasma concentration-time curve is obtained through ladder-shape calculation. Tmax is a time of a peak plasma concentration after the administration. The experimental data was expressed as “mean±standard deviation” (Mean±SD, n≥8) or “mean” (Mean, n=8).
Based on the plasma concentration data, the pharmacokinetic parameters after the administration calculated with the on-compartmental model by using WinNonlin V6.3 are shown in the following table.

[2] = parameters: species or system humans; settings: human, in vivo
Excerpt: According to disclosed data, an average clinical half-life of the control Tirzepatide in humans is 5.0 days.

Structure (SMILES) | average clinical half-life in humans [1] | MRT (in vivo) | AUC(0-inf) (in vivo) | AUC(0-t) (in vivo) | AUMC0-inf (in vivo) | AUMC0-t (in vivo) | Cmax (in vivo) | Kel (in vivo) | Tmax (in vivo) | half-life (in vivo) | half-life [2]
CC[C@H](C)[C@H](NC(=O)[C@H](CC(C)C)NC(=O)[C@H](Cc1c[nH]c2ccccc12)NC(=O)[C@H](CCC(N)=O)NC(=O)[C@@H](NC(=O)[C@H](Cc1ccccc1)NC(=O)[C@H](C)NC(=O)[C@H](CCCCNC(=O)COCCOCCNC(=O)COCCOCCNC(=O)CC[C@H](NC(=O)CCCCCCCCCCCCCCCCCCC(=O)O)C(=O)O)NC(=O)[C@H](CCC(N)=O)NC(=O)[C@H](C)NC(=O)[C@@H](NC(=O)[C@H](CCCCN)NC(=O)[C@H](CC(=O)O)NC(=O)[C@H](CC(C)C)NC(=O)C(C)(C)NC(=O)[C@@H](NC(=O)[C@H](CO)NC(=O)[C@H](Cc1ccc(O)cc1)NC(=O)[C@H](CC(=O)O)NC(=O)[C@H](CO)NC(=O)[C@@H](NC(=O)[C@H](Cc1ccccc1)NC(=O)[C@@H](NC(=O)CNC(=O)[C@H](CCC(=O)O)NC(=O)C(C)(C)NC(=O)[C@@H](N)Cc1ccc(O)cc1)[C@@H](C)O)[C@@H](C)O)[C@@H](C)CC)[C@@H](C)CC)C(C)C)C(=O)N[C@@H](C)C(=O)NCC(=O)NCC(=O)N1CCC[C@H]1C(=O)N[C@@H](CO)C(=O)N[C@@H](CO)C(=O)NCC(=O)N[C@@H](C)C(=O)N1CCC[C@H]1C(=O)N1CCC[C@H]1C(=O)N1CCC[C@H]1C(=O)N[C@@H](CO)C(N)=O [Tirzepatide] | 5.0 days | 25.6 h | 52100 ng·h/mL | 46700 ng·h/mL | 1352210 h · h · ng · mL^−1 | 1003190 h · h · ng · mL^−1 | 1540 ng/mL | 0.0680 h⁻¹ | 20 h | 636 min | –
CC[C@H](C)[C@H](NC(=O)[C@H](CCCCN)NC(=O)[C@H](CC(=O)O)NC(=O)[C@H](CC(C)C)NC(=O)C(C)(C)NC(=O)[C@@H](NC(=O)[C@H](CO)NC(=O)[C@H](Cc1ccc(O)cc1)NC(=O)[C@H](CC(=O)O)NC(=O)[C@H](CO)NC(=O)[C@@H](NC(=O)[C@H](Cc1ccccc1)NC(=O)[C@@H](NC(=O)CNC(=O)[C@H](CC(=O)O)NC(=O)C(C)(C)NC(=O)[C@@H](N)Cc1ccc(O)cc1)[C@@H](C)O)[C@@H](C)O)[C@@H](C)CC)C(=O)N[C@@H](C)C(=O)N[C@@H](CCC(N)=O)C(=O)N[C@@H](CCCCNC(=O)COCCOCC(=O)NCCOCCOCCNC(=O)CCC(NC(=O)CCCCCCCCCCCCCCCCCCC(=O)O)C(=O)O)C(=O)N[C@@H](C)C(=O)N[C@@H](Cc1ccccc1)C(=O)N[C@H](C(=O)N[C@@H](CCC(N)=O)C(=O)N[C@@H](Cc1c[nH]c2ccccc12)C(=O)N[C@@H](CC(C)C)C(=O)N[C@@H](CC(C)C)C(=O)N[C@@H](C)C(=O)NCC(=O)NCC(=O)N1CCC[C@H]1C(=O)N[C@@H](CO)C(=O)N[C@@H](CO)C(=O)NCC(=O)N[C@@H](C)C(=O)N1CCC[C@H]1C(=O)N1CCC[C@H]1C(=O)N1CCC[C@H]1C(=O)N[C@@H](CO)C(N)=O)C(C)C (some centres unmarked) [Polypeptide derivative (1)] (H-Y[Aib]DGTFTSDYSI[Aib]LDKIAQK(X1)AFVQWLLAGGPSSGAPPPS-NH2) | – | 33.6 h | 89700 ng·h/mL | 70400 ng·h/mL | 3022264 h · h · ng · mL^−1 | 1621331 h · h · ng · mL^−1 | 2070 ng/mL | 0.0421 h⁻¹ | 25.3 h | 1000 min | 7.88 days
